Measured values published in ChEMBL document CHEMBL1909046, “DrugMatrix in vitro pharmacology data”.

Assays:
[1] = molecular target: Beta-1 adrenergic receptor (Homo sapiens, UniProt P08588); assay: DRUGMATRIX: Adrenergic beta1 radioligand binding (ligand: [125I] Cyanopindolol); format: cell membranes, CHO-K1, Membrane; conditions: cho-k1; Not Active = under 50% inhibition at 10 µM
[2] = DRUGMATRIX: Calcium Channel Type L, Benzothiazepine radioligand binding (ligand: [3H] Diltiazem); format: cell membranes, Rattus norvegicus, Wistar, Brain, Membrane; conditions: Not Active = under 50% inhibition at 10 µM
[3] = molecular target: 5-hydroxytryptamine receptor 4 (Cavia porcellus, UniProt O70528); format: cell membranes, Dunkin-Hartley, Striatum, Membrane; further: in other assays of this panel Not Active means under 50% inhibition at 10 µM
Sequence of 5-hydroxytryptamine receptor 4 (O70528 whole entry): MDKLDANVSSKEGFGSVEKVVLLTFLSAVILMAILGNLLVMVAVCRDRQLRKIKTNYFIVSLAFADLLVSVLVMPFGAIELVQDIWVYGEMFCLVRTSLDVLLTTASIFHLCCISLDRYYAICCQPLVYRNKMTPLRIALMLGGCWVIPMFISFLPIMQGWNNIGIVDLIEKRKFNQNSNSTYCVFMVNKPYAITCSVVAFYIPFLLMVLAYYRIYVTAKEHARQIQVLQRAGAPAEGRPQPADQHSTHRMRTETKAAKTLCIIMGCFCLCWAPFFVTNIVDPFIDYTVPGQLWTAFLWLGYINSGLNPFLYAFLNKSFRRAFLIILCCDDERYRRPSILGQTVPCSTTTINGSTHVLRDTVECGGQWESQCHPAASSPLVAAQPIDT

Substance-K receptor = molecular target: T1, Substance-K receptor (Homo sapiens, UniProt P21452); format: cell membranes, CHO, Membrane; further: in other assays of this panel Not Active means under 50% inhibition at 10 µM
T1 sequence (P21452 whole entry): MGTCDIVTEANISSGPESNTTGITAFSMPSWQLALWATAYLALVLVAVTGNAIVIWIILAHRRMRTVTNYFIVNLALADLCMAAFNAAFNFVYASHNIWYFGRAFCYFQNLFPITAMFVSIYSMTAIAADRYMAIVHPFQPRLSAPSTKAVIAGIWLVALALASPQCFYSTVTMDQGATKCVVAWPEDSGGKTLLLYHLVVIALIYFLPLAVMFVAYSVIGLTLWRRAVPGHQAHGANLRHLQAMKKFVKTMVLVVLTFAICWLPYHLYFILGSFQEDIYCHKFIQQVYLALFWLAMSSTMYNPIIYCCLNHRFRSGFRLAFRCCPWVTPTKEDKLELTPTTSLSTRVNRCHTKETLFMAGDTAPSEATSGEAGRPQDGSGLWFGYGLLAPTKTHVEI

[4] = DRUGMATRIX: Glutamate, Kainate radioligand binding (ligand: [3H] Kainic acid); format: cell membranes, Rattus norvegicus, Wistar, Brain, Membrane; conditions: Not Active = under 50% inhibition at 10 µM
[5] = molecular target: T2, Cysteinyl leukotriene receptor 1 (Homo sapiens, UniProt Q9Y271); format: cell membranes, CHO-K1, Membrane; conditions: cho-k1; further: in other assays of this panel Not Active means under 50% inhibition at 10 µM
T2 sequence (Q9Y271 whole entry): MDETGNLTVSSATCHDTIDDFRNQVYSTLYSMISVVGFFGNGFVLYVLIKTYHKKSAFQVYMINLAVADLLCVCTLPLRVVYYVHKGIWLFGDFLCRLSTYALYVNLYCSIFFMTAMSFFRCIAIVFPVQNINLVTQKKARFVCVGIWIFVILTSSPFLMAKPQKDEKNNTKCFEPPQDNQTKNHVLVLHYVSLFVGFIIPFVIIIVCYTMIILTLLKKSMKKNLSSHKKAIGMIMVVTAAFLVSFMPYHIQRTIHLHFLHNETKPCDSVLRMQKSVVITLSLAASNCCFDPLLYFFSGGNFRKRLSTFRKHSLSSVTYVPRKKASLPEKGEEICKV

[6] = molecular target: T3, Muscarinic acetylcholine receptor M2 (Homo sapiens, UniProt P08172); format: cell membranes, CHO-K1, Membrane; conditions: cho-k1; further: in other assays of this panel Not Active means under 50% inhibition at 10 µM
T3 sequence (P08172 whole entry): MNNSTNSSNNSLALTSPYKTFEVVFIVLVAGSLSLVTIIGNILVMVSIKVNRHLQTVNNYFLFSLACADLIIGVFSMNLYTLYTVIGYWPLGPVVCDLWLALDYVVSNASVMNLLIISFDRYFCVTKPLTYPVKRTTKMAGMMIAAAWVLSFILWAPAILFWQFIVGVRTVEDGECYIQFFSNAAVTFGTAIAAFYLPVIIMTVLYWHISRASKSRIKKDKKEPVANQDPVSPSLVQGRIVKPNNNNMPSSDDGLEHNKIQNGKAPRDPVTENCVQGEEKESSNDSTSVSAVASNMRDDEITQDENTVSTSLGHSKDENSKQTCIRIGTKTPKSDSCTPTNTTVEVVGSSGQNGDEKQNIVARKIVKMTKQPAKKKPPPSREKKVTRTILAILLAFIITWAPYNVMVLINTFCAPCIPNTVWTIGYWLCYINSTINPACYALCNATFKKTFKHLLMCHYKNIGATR

[7] = molecular target: Protein phosphatase 3 catalytic subunit alpha (Homo sapiens, UniProt Q08209); set-up: species or system Escherichia coli
[8] = molecular target: Receptor tyrosine-protein kinase erbB-2 (Homo sapiens, UniProt P04626); assay: biochemical; format: cell-based, Insect cells; conditions: insect cells
Androgen receptor = molecular target: T4, Androgen receptor (Rattus norvegicus, UniProt P15207); further: in other assays of this panel Not Active means under 50% inhibition at 10 µM
T4 sequence (P15207 whole entry): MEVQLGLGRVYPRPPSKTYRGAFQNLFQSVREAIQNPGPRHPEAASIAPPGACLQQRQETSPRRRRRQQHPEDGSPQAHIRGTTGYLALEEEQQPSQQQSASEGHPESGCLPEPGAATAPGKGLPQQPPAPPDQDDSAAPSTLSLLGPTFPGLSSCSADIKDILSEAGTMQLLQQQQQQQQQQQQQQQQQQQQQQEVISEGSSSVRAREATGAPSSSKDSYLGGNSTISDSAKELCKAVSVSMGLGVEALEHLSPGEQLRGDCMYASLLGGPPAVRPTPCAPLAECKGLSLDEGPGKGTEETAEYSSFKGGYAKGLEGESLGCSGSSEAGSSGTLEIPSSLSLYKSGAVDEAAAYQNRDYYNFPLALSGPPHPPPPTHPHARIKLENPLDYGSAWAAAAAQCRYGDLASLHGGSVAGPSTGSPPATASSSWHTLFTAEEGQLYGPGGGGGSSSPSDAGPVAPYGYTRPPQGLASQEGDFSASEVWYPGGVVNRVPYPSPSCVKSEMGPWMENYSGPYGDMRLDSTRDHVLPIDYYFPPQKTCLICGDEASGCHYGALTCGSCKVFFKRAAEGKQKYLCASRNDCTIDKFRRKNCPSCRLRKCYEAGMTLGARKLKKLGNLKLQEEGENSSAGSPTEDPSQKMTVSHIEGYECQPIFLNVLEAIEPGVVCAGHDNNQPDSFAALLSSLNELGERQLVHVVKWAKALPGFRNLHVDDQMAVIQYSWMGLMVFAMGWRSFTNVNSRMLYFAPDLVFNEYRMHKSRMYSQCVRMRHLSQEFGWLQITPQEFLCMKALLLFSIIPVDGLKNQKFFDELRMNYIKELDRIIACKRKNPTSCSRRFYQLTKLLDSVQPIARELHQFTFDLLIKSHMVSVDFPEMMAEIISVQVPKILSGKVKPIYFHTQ

Sequence of Beta-1 adrenergic receptor (P08588 whole entry): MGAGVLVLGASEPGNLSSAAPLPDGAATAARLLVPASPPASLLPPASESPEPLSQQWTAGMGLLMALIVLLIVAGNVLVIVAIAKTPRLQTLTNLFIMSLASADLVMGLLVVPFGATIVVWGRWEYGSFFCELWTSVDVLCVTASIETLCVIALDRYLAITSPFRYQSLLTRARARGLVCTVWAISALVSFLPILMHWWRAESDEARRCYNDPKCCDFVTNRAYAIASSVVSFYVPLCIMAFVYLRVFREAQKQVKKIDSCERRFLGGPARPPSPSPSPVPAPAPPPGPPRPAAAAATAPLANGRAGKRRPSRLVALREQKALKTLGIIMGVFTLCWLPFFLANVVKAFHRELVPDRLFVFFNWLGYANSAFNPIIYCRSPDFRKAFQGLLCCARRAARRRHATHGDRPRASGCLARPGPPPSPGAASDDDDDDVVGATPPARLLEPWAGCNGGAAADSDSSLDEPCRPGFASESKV

Molecule | IC50 [1] | IC50 [2] | Ki [2] | IC50 [3] | IC50 [4] | Ki [4] | IC50 [5] | IC50 [6] | IC50 [7] | IC50 [8] | IC50 (Androgen receptor) | IC50 (Substance-K receptor; cho) | further results
O=c1cc(-c2ccccc2)oc2c1ccc1ccccc12 [ALPHA-NAPHTHOFLAVONE] | Not Active | Not Active | Not Active | Not Active | Not Active | Not Active | Not Active | Not Active | Not Active | Not Active | Not Active | – | IC50 (Substance-K receptor; read-out: IC50): 5850 nM; Ki (Substance-K receptor; read-out: Ki): 1950 nM
CN(C)[C@@H]1C(O)=C(C(N)=O)C(=O)[C@@]2(O)C(O)=C3C(=O)c4c(O)cccc4[C@@](C)(O)[C@H]3[C@H](O)[C@@H]12 [OXYTETRACYCLINE] | Not Active | Not Active | Not Active | Not Active | Not Active | Not Active | Not Active | Not Active | Not Active | Not Active | Not Active | Not Active | –
Fc1ccc([C@@H]2CCNC[C@H]2COc2ccc3c(c2)OCO3)cc1 [PAROXETINE] | Not Active | – | – | Not Active | Not Active | Not Active | Not Active | – | Not Active | Not Active | Not Active | Not Active | IC50 ([2]; read-out: IC50): 373 nM; Ki ([2]; read-out: Ki): 331 nM
GOLD SODIUM THIOMALATE | Not Active | Not Active | Not Active | Not Active | Not Active | Not Active | Not Active | Not Active | Not Active | Not Active | Not Active | Not Active | Ki [1]: Not Active; Ki [3]: Not Active; Ki (Substance-K receptor; cho): Not Active; Ki [5]: Not Active; Ki [6]: Not Active; Ki [7]: Not Active; Ki [8]: Not Active; Ki (Androgen receptor): Not Active
CISPLATIN | Not Active | Not Active | Not Active | Not Active | Not Active | Not Active | Not Active | Not Active | Not Active | Not Active | Not Active | Not Active | Ki [1]: Not Active; Ki [3]: Not Active; Ki (Substance-K receptor; cho): Not Active; Ki [5]: Not Active; Ki [6]: Not Active; Ki [7]: Not Active; Ki [8]: Not Active; Ki (Androgen receptor): Not Active
COc1ccc2cc(CC(=O)O)ccc2c1 | Not Active | Not Active | Not Active | Not Active | Not Active | Not Active | Not Active | Not Active | Not Active | Not Active | Not Active | Not Active | –
C=C1[C@@H]2CCC3[C@@](CC[C@@H]4[C@H](C(=O)O)C[C@@H](O[C@@H]5O[C@H](CO)[C@@H](OS(=O)(=O)[O-])[C@H](OS(=O)(=O)[O-])[C@H]5OC(=O)CC(C)C)C[C@@]34C)(C2)[C@@H]1O.[K+].[K+] (stereo not given in full) [ATRACTYLOSIDE] | Not Active | Not Active | Not Active | Not Active | Not Active | Not Active | Not Active | Not Active | Not Active | Not Active | Not Active | Not Active | –
CC(C)NC[C@H](O)COc1cccc2[nH]ccc12 | – | Not Active | Not Active | Not Active | Not Active | Not Active | Not Active | Not Active | Not Active | Not Active | Not Active | Not Active | –
Cc1[nH]cnc1CN1CCc2c(c3ccccc3n2C)C1=O [ALOSETRON] | Not Active | Not Active | Not Active | Not Active | Not Active | Not Active | Not Active | Not Active | Not Active | Not Active | – | Not Active | –
C/C=C1\[C@H]2C=C(C)C[C@]1(N)c1ccc(=O)[nH]c1C2 [HUPERZINE A] | Not Active | Not Active | Not Active | Not Active | Not Active | Not Active | Not Active | Not Active | Not Active | Not Active | – | Not Active | –
O=c1[nH]cc(F)c(=O)[nH]1 [FLUOROURACIL] | Not Active | Not Active | Not Active | Not Active | Not Active | Not Active | Not Active | Not Active | Not Active | Not Active | – | Not Active | –
COC1=CC(=O)C[C@@H](C)[C@]12Oc1c(Cl)c(OC)cc(OC)c1C2=O [GRISEOFULVIN] | Not Active | Not Active | Not Active | Not Active | Not Active | Not Active | Not Active | Not Active | Not Active | Not Active | – | Not Active | –
